Test results taken from patent publication US20230136600A1, “Method and device for screening antigen epitope polypeptide” (priority 2020, published 2023).

Experiments:
Balb/c mice [1] = experiment: Detection of peptide immunogenicity by polypeptide chip: vaccine peptide-specific signal sequencing (timing-sequence response, Fisher exact test); assay type: in vivo; settings: Embodiment IV; 7-peptide mixed solution with adjuvant: Mix 1 AddaVax, 2 Imject Alumn, 3 Alhydrogel, 4 Adju-Phos, 5 MA103A, 6 MA103B
Balb/c mice [2] = experiment: Polypeptide chip-based vaccine immunogenicity scoring system; assay type: in vivo; design: key to A2: whether the 95 percentile of the last sampling is increased compared with the end point: Y = rise; N = no rise; settings: for A: 95 percentile grouping number score / B: Mouse performance score: total score = 5
[3] = Embodiment III, polypeptide-KLH
[4] = Embodiment III, polypeptide-KLH, Mix1-10
[5] = Embodiment III, polypeptide-KLH, value of the whole mix
[6] = adjuvant AddaVax, 7 peptides co-immunized in mice
[7] = adjuvant Adju-Phos, 7 peptides co-immunized in mice
[8] = adjuvant Alhydrogel, 7 peptides co-immunized in mice
[9] = adjuvant Imjet Alumn, 7 peptides co-immunized in mice
[10] = adjuvant MA103A, 7 peptides co-immunized in mice
[11] = adjuvant MA103B, 7 peptides co-immunized in mice

## 1 (YTNDKACPL; SARS-CoV-2) [compound 1]
Balb/c mice [1]
  #A timing-sequence response peptide fragment set: 237
  #B vaccine specificity peptide fragment set: 1244
  Intersection of A and B: 0
  Mode I: 87
  Mode II: 157

## 2 (RGGSYTNDKAC; SARS-CoV-2) [compound 2]
Balb/c mice [1]
  #A timing-sequence response peptide fragment set: 100
  #B vaccine specificity peptide fragment set: 1244
  Intersection of A and B: 3
  Mode I: 74
  Mode II: 31

## 3 (SVYAWNRKR; SARS-CoV-2) [compound 3]
Balb/c mice [1]
  #A timing-sequence response peptide fragment set: 123
  #B vaccine specificity peptide fragment set: 1244
  Intersection of A and B: 2
  Mode I: 73
  Mode II: 53

## SVYAWNRKR (SARS-CoV-2) [SEQ ID NO:3]
Balb/c mice [2]; Embodiment II, Combination 1
  A2: whether the 95 percentile of the last sampling is increased compared with the end point: N
  B1: D 0-D 14 95 percentile rise in the number of mice: 5
  B2: D 0-D 21 95 percentile rise in the number of mice: 5
  B3: D 14-D 21 95 percentile rise in the number of mice: 1
  B4: D 21-D 28 95 percentile rise in the number of mice: 2
  A: 95 percentile grouping number score: 1
  B: Mouse performance score: 3.6
Balb/c mice [2]; Embodiment II, Combination 1, A*3 + B*2 + C*1
  Total single peptide: 10.7
Balb/c mice [2]; Embodiment II, mice immunized with Combination 1
  A1: difference between a highest median and a D 0 median (95 percentile): 0.05
Balb/c mice [2]; [3]
  B1: D 0-D 14 95 percentile rise in the number of mice: 3
  B2: D 0-D 21 95 percentile rise in the number of mice: 3
  B3: D 14-D 21 95 percentile rise in the number of mice: 2
  B4: D 21-D 28 95 percentile rise in the number of mice: 1
  A: 95 percentile grouping number score: 4.5
  B: Mouse performance score: 2.1
Balb/c mice [2]; [4]
  A1: difference between a highest median and a D 0 median (95 percentile): 0.13
  A2: whether the 95 percentile of the last sampling is increased compared with the end point: N
Balb/c mice [2]; Embodiment III, polypeptide-KLH, A*3 + B*2 + C*1
  Total single peptide: 18.7
Balb/c mice [2]; [5]
  C1: #A timing-sequence response peptide fragment set: 823
  C2: #B vaccine specificity peptide fragment set: 398
  C3: Intersection of A and B: 7
  C4: Percentage of the intersection in set B: 1.759
  C: Timing-sequence response and specificity score: 1
Balb/c mice [2]; [6]
  1) 95 percentile grouping number A: 4
  1) 95 percentile grouping number A1: 0.05
  2) Mouse performance B: 3.5
  2) Mouse performance B1: 3
  2) Mouse performance B2: 5
  2) Mouse performance B3: 4
  3) Timing-sequence response and specificity C: 0
  3) Timing-sequence response and specificity C1: 237
  3) Timing-sequence response and specificity C2: 1244
  3) Timing-sequence response and specificity C3: 0
  3) Timing-sequence response and specificity C4: 0.000
  Total single peptide: 19
Balb/c mice [2]; [7]
  1) 95 percentile grouping number A: 3.5
  1) 95 percentile grouping number A1: 0.05
  2) Mouse performance B: 3
  2) Mouse performance B1: 4
  2) Mouse performance B2: 5
  2) Mouse performance B3: 2
  3) Timing-sequence response and specificity C: 0
  3) Timing-sequence response and specificity C1: 203
  3) Timing-sequence response and specificity C2: 1244
  3) Timing-sequence response and specificity C3: 0
  3) Timing-sequence response and specificity C4: 0.000
  Total single peptide: 16.5
Balb/c mice [2]; [8]
  1) 95 percentile grouping number A: 1
  1) 95 percentile grouping number A1: 0.012
  2) Mouse performance B: 0.8
  2) Mouse performance B1: 2
  2) Mouse performance B2: 1
  2) Mouse performance B3: 0
  3) Timing-sequence response and specificity C: 1
  3) Timing-sequence response and specificity C1: 123
  3) Timing-sequence response and specificity C2: 1244
  3) Timing-sequence response and specificity C3: 2
  3) Timing-sequence response and specificity C4: 0.161
  Total single peptide: 5.1
Balb/c mice [2]; [9]
  1) 95 percentile grouping number A: 5
  1) 95 percentile grouping number A1: 0.09
  2) Mouse performance B: 2.7
  2) Mouse performance B1: 5
  2) Mouse performance B2: 4
  2) Mouse performance B3: 1
  3) Timing-sequence response and specificity C: 1
  3) Timing-sequence response and specificity C1: 100
  3) Timing-sequence response and specificity C2: 1244
  3) Timing-sequence response and specificity C3: 3
  3) Timing-sequence response and specificity C4: 0.241
  Total single peptide: 20.9
Balb/c mice [2]; [10]
  1) 95 percentile grouping number A: 5
  1) 95 percentile grouping number A1: 0.08
  2) Mouse performance B: 2.9
  2) Mouse performance B1: 5
  2) Mouse performance B2: 5
  2) Mouse performance B3: 1
  3) Timing-sequence response and specificity C: 1
  3) Timing-sequence response and specificity C1: 260
  3) Timing-sequence response and specificity C2: 1244
  3) Timing-sequence response and specificity C3: 3
  3) Timing-sequence response and specificity C4: 0.241
  Total single peptide: 21.3
Balb/c mice [2]; [11]
  1) 95 percentile grouping number A: 3.5
  1) 95 percentile grouping number A1: 0.05
  2) Mouse performance B: 2.9
  2) Mouse performance B1: 5
  2) Mouse performance B2: 5
  2) Mouse performance B3: 1
  3) Timing-sequence response and specificity C: 0
  3) Timing-sequence response and specificity C1: 153
  3) Timing-sequence response and specificity C2: 1244
  3) Timing-sequence response and specificity C3: 0
  3) Timing-sequence response and specificity C4: 0.000
  Total single peptide: 16.3
